Experimental data: US4472404A, “8-Quinolinyl carbamates and their use as urinary tract antimicrobials” (priority 1982, dated 1984)
In brackets after ≈: the same amount, converted by molar mass. Like-named read-outs stand apart in the source and are kept apart here.

Experiments:
Assay type in all cases: cell-based
[1] = tested on: Staphylococcus aureus ATCC 25923; experiment: Minimum inhibitory concentration, urinary tract organisms (Example 13)
Protocol: (§1) The test compound was added to molten agar as a solution (when conveniently soluble in a solvent such as dimethylformamide) or a suspension forming a mixture having a concentration of 0.05 percent (500 ppm). The mixture was stirred and poured into plates to harden. When hardened, the plates were inoculated with various bacteria and fungi. The bacteria-inoculated plates were incubated at 37° C. for 24 hours, while the fungi-inoculated plates were incubated for about 72-120 hours. Following incubation, the plates were examined for growth or inhibition of the respective organisms.
(§2) After the initial readings, compounds showing sufficient activity were re-tested at various concentrations to determine the minimum inhibitory concentration (in ppm) of the compounds of the invention against the various bacteria and fungi tested.
(§3) Following a procedure substantially the same as that described in Example 12, the minimum inhibitory concentration for the compounds described herein was determined for various organisms representative of those commonly associated with urinary tract infections.
(§4) The organisms used in this procedure and the abbreviations designated in Table 3 are as follows: […]

[2] = tested on: Klebsiella pneumoniae M-1; experiment: as above
Protocol: as §1, §2, §3, §4

[3] = tested on: Pseudomonas aeruginosa ATCC 10145; experiment: as above
Protocol: as §1, §2, §3, §4

[4] = tested on: Pseudomonas aeruginosa ATCC 27853; experiment: as above
Protocol: as §1, §2, §3, §4

[5] = tested on: Enterobacter aerogenes ATCC 13048; experiment: as above; settings: Klebsiella aerogenes
Protocol: as §1, §2, §3, §4

[6] = tested on: Escherichia coli ATCC 25922; experiment: as above
Protocol: as §1, §2, §3, §4

Serratia marcescens M-1 = experiment: as above
Protocol: as §1, §2, §3, §4

[7] = tested on: Klebsiella pneumoniae M-2; experiment: as above
Protocol: as §1, §2, §3, §4

[8] = tested on: Escherichia coli ATCC 4157; experiment: as above
Protocol: as §1, §2, §3, §4

Proteus mirabilis 470/1 = experiment: as above
Protocol: as §1, §2, §3, §4

[9] = tested on: Klebsiella pneumoniae M-6; experiment: as above
Protocol: as §1, §2, §3, §4

[10] = tested on: Escherichia coli ATCC 11229; experiment: as above
Protocol: as §1, §2, §3, §4

[11] = tested on: Pseudomonas aeruginosa PRD-10; experiment: as above
Protocol: as §1, §2, §3, §4

[12] = tested on: Pseudomonas aeruginosa ATCC 7700; experiment: as above
Protocol: as §1, §2, §3, §4

[13] = tested on: Klebsiella pneumoniae ATCC 23357; experiment: as above
Protocol: as §1, §2, §3, §4

[14] = tested on: Escherichia coli ATCC 9723; experiment: as above
Protocol: as §1, §2, §3, §4

Bacillus subtilis = experiment: Agar-plate minimum inhibitory concentration (Example 12); settings: read-out: Minimum Inhibitory Concentration
Protocol: as §1, §2

Ceratocystis ips = experiment: as above; settings: read-out: Minimum Inhibitory Concentration
Protocol: as §1, §2

[15] = tested on: Trichophyton mentagrophytes; experiment: as above; settings: read-out: Minimum Inhibitory Concentration
Protocol: as §1, §2

Streptococcus mutans = experiment: as above; settings: read-out: Minimum Inhibitory Concentration
Protocol: as §1, §2

Aspergillus niger = experiment: as above; settings: read-out: Minimum Inhibitory Concentration
Protocol: as §1, §2

Candida pelliculosa = experiment: as above; settings: Hansenula anomala, read-out: Minimum Inhibitory Concentration
Protocol: as §1, §2

Candida albicans = experiment: as above; settings: read-out: Minimum Inhibitory Concentration
Protocol: as §1, §2

Salmonella typhosa = experiment: as above; settings: Salmonella enterica, read-out: Minimum Inhibitory Concentration
Protocol: as §1, §2

[16] = ATCC25923, Sa 25923, read-out: Minimum Inhibitory Concentration
[17] = M1, Kp M-1, read-out: Minimum Inhibitory Concentration
[18] = ATCC10145, Pa 10145, read-out: Minimum Inhibitory Concentration
[19] = ATCC27853, Pa 27853, read-out: Minimum Inhibitory Concentration
[20] = ATCC13048, Ea 13048, read-out: Minimum Inhibitory Concentration
[21] = ATCC25922, Ec 25922, read-out: Minimum Inhibitory Concentration
[22] = M1, Sr M-1, read-out: Minimum Inhibitory Concentration
[23] = M2, Kp M-2, read-out: Minimum Inhibitory Concentration
[24] = ATCC4157, Ec 4157, read-out: Minimum Inhibitory Concentration
[25] = Pm 470/1, read-out: Minimum Inhibitory Concentration
[26] = M6, Kp M-6, read-out: Minimum Inhibitory Concentration
[27] = ATCC11229, Ec 11229, read-out: Minimum Inhibitory Concentration
[28] = PRD10, Pa PRD-10, read-out: Minimum Inhibitory Concentration
[29] = ATCC7700, Pa 7700, read-out: Minimum Inhibitory Concentration
[30] = ATCC23357, Kp 23357, read-out: Minimum Inhibitory Concentration
[31] = ATCC9723, Ec 9723, read-out: Minimum Inhibitory Concentration
[32] = Ceratocystis ips, agar, 72-120 hours
[33] = Candida pelliculosa, agar, 72-120 hours
[34] = Salmonella typhosa, agar, 37° C., 24 hours
[35] = M1, read-out: Minimum Inhibitory Concentration

CCOC(=O)CNC(=O)Oc1ccc([N+](=O)[O-])c2cccnc12 [Example 5, Ethyl N-(((5-nitro-8-quinolinyl)oxy)carbonyl)glycinate]
MIC [1, 16]: 25 µg/mL (≈ 78.3 µM)
MIC [2, 17]: 25 µg/mL (≈ 78.3 µM)
MIC [3, 18]: 25 µg/mL (≈ 78.3 µM)
MIC [4, 19]: 75 µg/mL (≈ 235 µM)
MIC [5, 20]: 25 µg/mL (≈ 78.3 µM)
MIC [6, 21]: 10 µg/mL (≈ 31.3 µM)
MIC (Serratia marcescens M-1; [22]): 50 µg/mL (≈ 157 µM)
MIC [7, 23]: 25 µg/mL (≈ 78.3 µM)
MIC [8, 24]: 25 µg/mL (≈ 78.3 µM)
MIC (Proteus mirabilis 470/1; [25]): 10 µg/mL (≈ 31.3 µM)
MIC [9, 26]: 25 µg/mL (≈ 78.3 µM)
MIC [10, 27]: 25 µg/mL (≈ 78.3 µM)
MIC [11, 28]: 50 µg/mL (≈ 157 µM)
MIC [12, 29]: 100 µg/mL (≈ 313 µM)
MIC [13, 30]: 10 µg/mL (≈ 31.3 µM)
MIC [14, 31]: 25 µg/mL (≈ 78.3 µM)
MIC (Bacillus subtilis; agar, 37° C., 24 hours): 5 µg/mL (≈ 15.7 µM)
MIC (Ceratocystis ips; [32]): 100 µg/mL (≈ 313 µM)
MIC ([15]; agar, 72-120 hours): 50 µg/mL (≈ 157 µM)
MIC (Streptococcus mutans; agar, 37° C., 24 hours): > 500 µg/mL
MIC (Aspergillus niger; agar, 72-120 hours): 50 µg/mL (≈ 157 µM)
MIC (Candida pelliculosa; [33]): 50 µg/mL (≈ 157 µM)
MIC (Candida albicans; agar, 72-120 hours): 50 µg/mL (≈ 157 µM)
MIC (Salmonella typhosa; [34]): 5 µg/mL (≈ 15.7 µM)

CCOC(=O)CNC(=O)Oc1ccc(Cl)c2cccnc12.CS(=O)(=O)O [Example 7, Ethyl N-(((5-chloro-8quinolinyl)oxy)carbonyl)glycinate methanesulfonic acid salt]
MIC [1, 16]: < 5 µg/mL
MIC [2, 17]: 75 µg/mL
MIC [3, 18]: 75 µg/mL
MIC [4, 19]: 250 µg/mL
MIC [5, 20]: 75 µg/mL
MIC [6, 21]: 25 µg/mL
MIC (Serratia marcescens M-1; [22]): 100 µg/mL
MIC [7, 23]: 75 µg/mL
MIC [8, 24]: 50 µg/mL
MIC (Proteus mirabilis 470/1; [25]): 75 µg/mL
MIC [9, 26]: 50 µg/mL
MIC [10, 27]: 50 µg/mL
MIC [11, 28]: 250 µg/mL
MIC [12, 29]: 250 µg/mL
MIC [13, 30]: 75 µg/mL
MIC [14, 31]: 50 µg/mL
MIC (Bacillus subtilis; agar, 37° C., 24 hours): 5 µg/mL
MIC (Ceratocystis ips; [32]): 50 µg/mL
MIC ([15]; agar, 72-120 hours): 10 µg/mL
MIC (Streptococcus mutans; agar, 37° C., 24 hours): 500 µg/mL
MIC (Aspergillus niger; agar, 72-120 hours): 50 µg/mL
MIC (Candida pelliculosa; [33]): 50 µg/mL
MIC (Candida albicans; agar, 72-120 hours): 50 µg/mL
MIC (Salmonella typhosa; [34]): 10 µg/mL

CCOC(=O)CNC(=O)Oc1ccc(Cl)c2cccnc12.Cl [Example 8, Ethyl N-(((5-chloro-8-quinolinyl)oxy)carbonyl)glycinate hydrochloride salt]
MIC [1, 16]: 10 µg/mL
MIC [2, 17]: 50 µg/mL
MIC [3, 18]: 75 µg/mL
MIC [4, 19]: 100 µg/mL
MIC [5, 20]: 50 µg/mL
MIC [6, 21]: 25 µg/mL
MIC (Serratia marcescens M-1; [22]): 75 µg/mL
MIC [7, 23]: 50 µg/mL
MIC [8, 24]: 25 µg/mL
MIC (Proteus mirabilis 470/1; [25]): 50 µg/mL
MIC [9, 26]: 25 µg/mL
MIC [10, 27]: 25 µg/mL
MIC [11, 28]: 100 µg/mL
MIC [12, 29]: 100 µg/mL
MIC [13, 30]: 50 µg/mL
MIC [14, 31]: 25 µg/mL
MIC (Bacillus subtilis; agar, 37° C., 24 hours): 1 µg/mL
MIC (Ceratocystis ips; [32]): 50 µg/mL
MIC ([15]; agar, 72-120 hours): 10 µg/mL
MIC (Streptococcus mutans; agar, 37° C., 24 hours): > 500 µg/mL
MIC (Aspergillus niger; agar, 72-120 hours): 10 µg/mL
MIC (Candida pelliculosa; [33]): 10 µg/mL
MIC (Candida albicans; agar, 72-120 hours): 10 µg/mL
MIC (Salmonella typhosa; [34]): 50 µg/mL

CCOC(=O)CNC(=O)Oc1cccc2cccnc12 [Example 9, Ethyl N-(((8-quinolinyl)oxy)carbonyl)glycinate]
MIC [1, 16]: 10 µg/mL (≈ 36.5 µM)
MIC [2, 17]: 100 µg/mL (≈ 365 µM)
MIC [3, 18]: 50 µg/mL (≈ 182 µM)
MIC [4, 19]: 250 µg/mL (≈ 911 µM)
MIC [5, 20]: 100 µg/mL (≈ 365 µM)
MIC [6, 21]: 75 µg/mL (≈ 273 µM)
MIC (Serratia marcescens M-1; [22]): 100 µg/mL (≈ 365 µM)
MIC [7, 23]: 100 µg/mL (≈ 365 µM)
MIC [8, 24]: 75 µg/mL (≈ 273 µM)
MIC (Proteus mirabilis 470/1; [25]): 75 µg/mL (≈ 273 µM)
MIC [9, 26]: 75 µg/mL (≈ 273 µM)
MIC [10, 27]: 75 µg/mL (≈ 273 µM)
MIC [11, 28]: 500 µg/mL (≈ 1820 µM)
MIC [12, 29]: 500 µg/mL (≈ 1820 µM)
MIC [13, 30]: 50 µg/mL (≈ 182 µM)
MIC [14, 31]: 75 µg/mL (≈ 273 µM)
MIC (Bacillus subtilis; agar, 37° C., 24 hours): 10 µg/mL (≈ 36.5 µM)
MIC (Ceratocystis ips; [32]): 100 µg/mL (≈ 365 µM)
MIC ([15]; agar, 72-120 hours): 50 µg/mL (≈ 182 µM)
MIC (Streptococcus mutans; agar, 37° C., 24 hours): 5 µg/mL (≈ 18.2 µM)
MIC (Aspergillus niger; agar, 72-120 hours): 100 µg/mL (≈ 365 µM)
MIC (Candida pelliculosa; [33]): 50 µg/mL (≈ 182 µM)
MIC (Candida albicans; agar, 72-120 hours): 100 µg/mL (≈ 365 µM)
MIC (Salmonella typhosa; [34]): 50 µg/mL (≈ 182 µM)

CNC(=O)Oc1c(Cl)cc(Cl)c2cccnc12 [Example 10, 5,7-Dichloro-8quinolinyl N-methylcarbamate]
MIC ([1]; ATCC25923, read-out: Minimum Inhibitory Concentration): < 5 µg/mL
MIC [2, 35]: 25 µg/mL (≈ 92.2 µM)
MIC ([3]; ATCC10145, read-out: Minimum Inhibitory Concentration): 10 µg/mL (≈ 36.9 µM)
MIC ([4]; ATCC27853, read-out: Minimum Inhibitory Concentration): 50 µg/mL (≈ 184 µM)
MIC ([5]; ATCC13048, read-out: Minimum Inhibitory Concentration): 25 µg/mL (≈ 92.2 µM)
MIC ([6]; ATCC25922, read-out: Minimum Inhibitory Concentration): 10 µg/mL (≈ 36.9 µM)
MIC (Serratia marcescens M-1; [35]): 25 µg/mL (≈ 92.2 µM)
MIC ([7]; M2, read-out: Minimum Inhibitory Concentration): 25 µg/mL (≈ 92.2 µM)
MIC ([8]; ATCC4157, read-out: Minimum Inhibitory Concentration): 10 µg/mL (≈ 36.9 µM)
MIC (Proteus mirabilis 470/1; 470/1, read-out: Minimum Inhibitory Concentration): 10 µg/mL (≈ 36.9 µM)
MIC ([9]; M6, read-out: Minimum Inhibitory Concentration): 25 µg/mL (≈ 92.2 µM)
MIC ([10]; ATCC11229, read-out: Minimum Inhibitory Concentration): 10 µg/mL (≈ 36.9 µM)
MIC ([11]; PRD10, read-out: Minimum Inhibitory Concentration): 25 µg/mL (≈ 92.2 µM)
MIC ([12]; ATCC7700, read-out: Minimum Inhibitory Concentration): 50 µg/mL (≈ 184 µM)
MIC ([13]; ATCC23357, read-out: Minimum Inhibitory Concentration): 10 µg/mL (≈ 36.9 µM)
MIC ([14]; ATCC9723, read-out: Minimum Inhibitory Concentration): 10 µg/mL (≈ 36.9 µM)
MIC (Bacillus subtilis; 24 h): 0.5 µg/mL (≈ 1.84 µM)
MIC (Ceratocystis ips): 50 µg/mL (≈ 184 µM)
MIC [15]: 50 µg/mL (≈ 184 µM)
MIC (Streptococcus mutans; 24 h): 10 µg/mL (≈ 36.9 µM)
MIC (Aspergillus niger): 10 µg/mL (≈ 36.9 µM)
MIC (Candida pelliculosa): 5 µg/mL (≈ 18.4 µM)
MIC (Candida albicans): 5 µg/mL (≈ 18.4 µM)
MIC (Salmonella typhosa; TYPHOSA, 24 h): 10 µg/mL (≈ 36.9 µM)
